Measured values from publication PMC3355318 (Toxicological Sciences, 2012).

What was measured:
Huh-7 cells = conditions: ref Lin et al., 2012; cited from earlier work
HepG2 cells = conditions: ref Wang et al., 2002; cited from earlier work
[1] = tested on: 3D spheroids constructed from immortal human C3A hepatocytes (HepG2/C3A)
[2] = ref Schulz and Schmoldt, 2003; cited from earlier work

Compound | LD50 converted from published LC50 (Huh-7 cells) | LD50 converted from published LC50 (HepG2 cells) | cellular ATP production at low compound concentrations [1] | LD50 ([1]; human) | Terminal elimination half-life [2]
CC(=O)Nc1ccc(O)cc1 [APAP, Acetaminophen] | 4.13 mg/mg | 82.32 mg/mg | – | – | –
CN(C)C(=N)N=C(N)N [Metformin, metformin] | – | – | slightly increased | 2.76 mg compound/mg cellular protein | –
[H]/N=C(/N)N/C(=N/[H])NCCc1ccccc1 [Phenformin, phenformin] | – | – | not seen | – | –
CCCC(CCC)C(=O)O [Valproic acid, valproic acid] | – | – | not seen | – | 15 h
